The values below are quoted from earlier work in US8648203B2 (priority 2005, dated 2014).

For data set [1], the system named is potato Phycophthora infestans. The conditions noted are these: field tests.
The subject of another data set is mites. The conditions noted are these: repeated treatments in the field.

Each structure is given as a SMILES string.

`O=[N+]([O-])c1cc(C(F)(F)F)c(Cl)c([N+](=O)[O-])c1Nc1ncc(C(F)(F)F)cc1Cl` [fluazinam, 3-chloro-N-(3-chloro-5-trifluoromethyl-2-pyridyl)-α,α,α-trifluoro-2,6-dinitro-p-toluidine]: in data set [1], the “activity against potato Phycophthora infestans” value is reported as “excellent activity”. Besides, the population of mites entry in the data set with mites is “significantly reduce the population of mites”.
